We go through one molecule from patent US20240353338A1 (priority 2023, published 2024).

For this experiment, the system named is early Delta variant of SARS-CoV-2. Format: cell-based.

Take `C[C@@H](OC(C)(C)C)[C@H](NC(=O)OCc1ccccc1)C(=O)N[C@@H](CC1CCCCC1)C(=O)N[C@H](C=O)C[C@@H]1CCNC1=O` [MPI8]: the “antiviral effectiveness (virus growth by reverse transcriptase quantitative PCR)” value is reported as “inhibition of virus growth”.
